Assay results taken from patent US12496298B2, “Natural killer cells” (Imperial College Innovations Limited, priority 2017, dated 2025).

System: mouse NK cell (NK1.1+CD3−) production from HPCs
Test: In vitro development of NK cells from mouse HPCs (NK cell development assay, flow cytometry at Day 9)
Type: cell-based
Text: FIG. 2: Timeline of NK cell development assay. HPCs were isolated and cultured plus FIt3L, IL-7 and SCF cytokines. At Day 2, they were then transferred onto OP9 stromal cells plus or minus drug in culture medium plus the IL-15 cytokine. The media of the cultures were changed at Day 5 and the cells were harvested and analysed at Day 9.
Lineage negative cells are enriched for Hematopoietic Progenitor Cells (HPCs). […] Cells were harvested on Day 9 and analysed using flow cytometry to determine the number of NK1.1^+CD3^− cells (FIG. 2). NK1.1^+ and CD3^− are two cell surface markers that can define mouse NK cells. OP9 stromal cells were readily excluded from the analysis, as the OP9 stromal cells used were GFP positive (FIG. 3B). Flow cytometry data were analysed as the fold increase, relative to the ‘No drug’ or untreated control in each experiment. This is because the absolute percentage of NK cell production varies between experiments.
Lineage negative HSCs were purified from mouse bone marrow by crushing the leg bones in Phosphate-buffered Saline (PBS) with 2% fetal calf serum (FCS) (STEMCELL Technologies), topped up to 40 ml with magnetic-activated cell sorting (MACS) buffer (PBS, 2 mM EDTA, 0.5% BSA, sterile and filtered) and centrifuged at 800 g for 2 minutes. The cells were resuspended in PE-conjugated cocktail, (20 μl of anti-B220 (RA3-6B2), anti-mouse CD2 (RM2-5, anti-Ter119 (TER119) and anti-NK.1.1 (PK136) and 5 μl of anti-CD11b (M1/70) and anti-GR-1 (RB6-8C5) antibodies (all from Bioscience)) incubated for 5 minutes at 4° C., centrifuged and resuspended in anti-PE microbeads for 15 minutes at 4° C. Cells were washed in MACS buffer and passed through MACS columns. This allowed negative selection of HPCs. Following lineage depletion, 50 μl of the cells was analysed using flow cytometry to check for purity.
The HPCs were plated and cultured in 24-well plates at a concentration of 5×10^5 HPCs/well in 1 ml of complete cytokine medium (Dulbecco's modified eagle medium (DMEM) (Sigma Aldrich), 10% FCS, 50 μM β-Mercaptoethanol, 10 ng/ml Flt3-ligand (FIt3L) (R&D Systems), 10 ng/ml IL-7 (R&D Systems), 100 ng/ml stem cell factor (SCF) (R&D Systems) and 1% P/S) for 2 days at 37° C., 5% CO2. The HPCs were then transferred onto OP9 cells at 4500 cells/well for 96-well plate experiments and 3×10^4 cells/well for 24-well plate experiments in mouse NK cells differentiation medium (Alpha-MEM (Sigma Aldrich) plus 20% FCS, 1% P/S and 30 ng/ml IL-15). Cells were left in culture at 37° C., 5% CO2 for 7 days with a change of mouse NK cells differentiation medium at day 3 or 4.
Cells to be analysed by flow cytometry were passed through 40 μm cell strainers to remove clumps and washed with PBS buffer, centrifuged at 800 g for 2 minutes and resuspended in 100 μl fluorescent activated cell sorting (FACS) buffer (PBS plus 1% BSA) with appropriate fluorochrome conjugated antibodies at a dilution of 1 in 300. Cells were stained with the following antibodies, all of which were anti-mouse and are from eBioscience unless specified: 2B4 (clone m2B4(B6) 458.1; BioLegend), CD2 (RM2-5), CD3 (17A2), CD11b (M1/70), CD19 (1D3), CD27 (LG.7F9), CD122 (TM-b1), CD127 (A7R34), B220 (RA3-6B2), ckit (ACK2), Flt3 (A2F10), Gr1 (RB6-8C5), NK1.1 (PK136), Sca1 (D7), Ter119 (TER119), NKp46 (29A1.4) anti-human CD45 (HI30), anti-human CD2 (RPA-2.10) and anti-human CD56 (CMSSB). The lineage cocktail contained B220, CD2, CD11b, Gr1, NK1.1, and Ter119. Cells were stained in the dark at 4° C. for 30 minutes and then washed with 2 ml FACS buffer, centrifuged and resuspend in 300 μl FACS buffer plus Propidium Iodide (PI) also at a dilution of 1 in 300. Flow cytometry was performed using LSRFortessa™ cell analyser (Becton Dickinson Bioscience), sorted using FACSAria (Becton Dickinson) as indicated and full data analysis was done using FlowJo Software.

Q: How did the “NK cell production reduced” value (GSK4112 tested at 2, 5, 10 and 20 μM (FIG. 6), concentration not given) turn out when `CC(C)(C)OC(=O)CN(Cc1ccc(Cl)cc1)Cc1ccc([N+](=O)[O-])s1` [GSK4112] was run?
A: ~50%

Q: What about the “effect on NK cell production” value (summary in Discussion) of the same compound?
A: decreasing NK cell production

Q: Which “NK cell production compared to 'No drug' control” value (5 μM added Day 2, analysed Day 9, screen (FIG. 3)) does the source give for `N#Cc1ccc(-c2csc(NN=C3CCCC3)n2)cc1` [Remodelin] here?
A: significant increase

Q: With `NC(=O)c1ccc(-c2nc(-c3ccc4c(c3)OCCO4)c(-c3ccccn3)[nH]2)cc1` [D4476] as the compound, how does the “NK cell production compared to 'No drug' control” value (20 μM added Day 2, analysed Day 9, screen (FIG. 3)) read?
A: significant increase
